Test system: T1, CESP (coconut endosperm protease)
T1 construct: native, purified from fully matured coconut kernel (endosperm)
Assay: p-nitroaniline release at […] nm
Assay type: biochemical, Cocos nucifera
Conditions: 100 mM Tris HCl pH 8.5, 37 °C

- Km: 200 µM
Structure (SMILES): N=C(N)NCCCC(NC(=O)c1ccccc1)C(=O)Nc1ccc([N+](=O)[O-])cc1 (racemic) [BAPNA]

From paper PMC2689245, “Purification and characterization of a serine protease (CESP) from mature coconut endosperm” (BMC Research Notes, 2009)
